Results as given in ChEMBL document CHEMBL4431321, “Profiling of Flavonol Derivatives for the Development of Antitrypanosomatidic Drugs” (J Med Chem, 2016).
Active and inactive are the calls of the source. The rule behind the calls is not given here.

What was measured:
786-0 = test: Mitochondrial toxicity in human 786-O cells incubated for 6 hrs by mitotracker red staining based-uptake method; format: cell-based; conditions: 786-0, 6 h
Cytochrome P450 1A2 [1] = target: T1, Cytochrome P450 1A2 (Homo sapiens, UniProt P05177); test: Inhibition of human microsomal CYP1A2 expressed in baculovirus infected BTI-TN-5B1-4 cells at 10 uM incubated for 30 mins by luciferase assay; format: ADME; conditions: bti-tn-5b1-4, 0.5 h, 10 µM
T1 sequence (P05177 whole entry): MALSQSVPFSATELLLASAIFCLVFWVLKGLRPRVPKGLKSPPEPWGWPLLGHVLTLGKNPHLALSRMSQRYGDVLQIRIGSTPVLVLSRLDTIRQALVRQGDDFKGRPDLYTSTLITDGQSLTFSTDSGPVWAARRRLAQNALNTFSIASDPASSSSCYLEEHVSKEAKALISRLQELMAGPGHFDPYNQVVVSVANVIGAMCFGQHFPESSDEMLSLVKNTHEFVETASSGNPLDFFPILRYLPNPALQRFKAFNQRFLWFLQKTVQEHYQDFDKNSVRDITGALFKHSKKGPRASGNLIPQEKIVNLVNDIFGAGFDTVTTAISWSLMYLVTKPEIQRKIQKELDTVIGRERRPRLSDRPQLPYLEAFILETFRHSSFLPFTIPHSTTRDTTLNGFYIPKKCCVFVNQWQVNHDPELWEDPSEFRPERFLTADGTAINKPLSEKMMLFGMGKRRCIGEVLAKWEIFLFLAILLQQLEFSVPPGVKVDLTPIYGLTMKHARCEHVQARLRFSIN

Cytochrome P450 2C9 = Cytochrome P450 2C9 (Homo sapiens, UniProt P11712); test: Inhibition of human microsomal CYP2C9 expressed in baculovirus infected BTI-TN-5B1-4 cells incubated for 30 mins by luciferase assay; format: ADME
Leishmania mexicana [2] = test: Inhibition of Leishmania mexicana DHFR at 50 uM using folic aid as substrate by spectrophotometric analysis
[3] = Drug uptake in NMRI mouse plasma at 4 mg/kg, po administered with cyclodextrins by HPLC analysis; format: ADME, organism-based; conditions: in vivo
[4] = test system: Trypanosoma brucei brucei; test: Antitrypanosomal activity against Trypanosoma brucei brucei Lister 427 bloodstream forms at 10 uM after 72 hrs by resazurin-based assay; format: functional, organism-based
Cytochrome P450 3A4 = Cytochrome P450 3A4 (Homo sapiens, UniProt P08684); test: Inhibition of human microsomal CYP3A4 expressed in baculovirus infected BTI-TN-5B1-4 cells incubated for 30 mins by luciferase assay; format: ADME
Cytochrome P450 1A2 [5] = target: T1, Cytochrome P450 1A2; test: Inhibition of human microsomal CYP1A2 expressed in baculovirus infected BTI-TN-5B1-4 cells incubated for 30 mins by luciferase assay; format: ADME
[6] = test system: Trypanosoma brucei brucei; test: Antitrypanosomal activity against Trypanosoma brucei brucei Lister 427 bloodstream forms compound treated through encapsulation in PLGA nanoparticles after 72 hrs by resazurin-based assay; format: functional, organism-based; conditions: Lister 427, 72 h
Cytochrome P450 2C19 = Cytochrome P450 2C19 (Homo sapiens, UniProt P33261); test: Inhibition of human microsomal CYP2C19 expressed in baculovirus infected BTI-TN-5B1-4 cells incubated for 30 mins by luciferase assay; format: ADME
Leishmania mexicana [7] = test: Inhibition of Leishmania mexicana PTR1 at 50 uM using H2B as substrate incubated for 10 mins followed by addition of NADPH measured for 10 to 50 mins
[8] = Cytotoxicity against human THP1 cells compound treated with cyclodextrins after 72 hrs by MTT assay; format: cell-based; conditions: THP-1 cells, read-out: NOAEL
A549 = test: Cytotoxicity against human A549 cells at 100 uM after 48 hrs by cell titer glo assay; format: cell-based; conditions: a549, 48 h
[9] = Cytotoxicity against human THP1 cells after 72 hrs by MTT assay; format: cell-based; conditions: THP-1 cells
[10] = Drug uptake in BALB/c mouse plasma at 1 mg/kg, iv administered as single dose through encapsulation in PLGA nanoparticles by HPLC analysis; format: ADME, organism-based; conditions: in vivo
[11] = Drug uptake in BALB/c mouse blood at 1 mg/kg, iv administered as single dose after 30 mins by HPLC analysis; format: ADME, organism-based; conditions: in vivo, 0.5 h
[12] = test system: Trypanosoma brucei brucei; test: Antitrypanosomal activity against Trypanosoma brucei brucei Lister 427 bloodstream forms assessed as synergy coefficient at 1.25 to 5 uM after 72 hrs in presence of MTX by resazurin-based assay; format: functional
[13] = Solubility of compound in PBS incubated for 18 hrs by UV-visible spectroscopic analysis; format: physicochemical; conditions: buffer
in vitro = conditions: human, THP-1 cells
Description: Selectivity index, ratio of CC50 for human THP1 cells to EC50 for Trypanosoma brucei brucei Lister 427 bloodstream forms

[14] = Cytotoxicity against human THP1 cells compound treated through encapsulation in PLGA nanoparticles after 72 hrs by MTT assay; format: cell-based; conditions: THP-1 cells, read-out: NOAEL
[15] = Half life BALB/c mouse blood at 1 mg/kg, iv administered as single dose by HPLC analysis; format: ADME, organism-based
Dihydrofolate reductase = Dihydrofolate reductase (Homo sapiens, UniProt P00374); test: Inhibition of human DHFR using folic aid as substrate by spectrophotometric analysis
[16] = target: Voltage-gated inwardly rectifying potassium channel KCNH2 (Homo sapiens, UniProt Q12809); test: Inhibition of human ERG in membranes incubated for 2 hrs by fluorescence polarization assay
Trypanosoma brucei [17] = test: Inhibition of Trypanosoma brucei PTR1 at 50 uM using H2B as substrate incubated for 10 mins followed by addition of NADPH measured for 10 to 50 mins
[18] = Drug uptake in BALB/c mouse plasma at 1 mg/kg, po administered as single dose through encapsulation in PLGA nanoparticles by HPLC analysis; format: ADME, organism-based; conditions: in vivo
[19] = test system: Trypanosoma brucei brucei; test: Antitrypanosomal activity against Trypanosoma brucei brucei Lister 427 bloodstream forms after 72 hrs by resazurin-based assay; format: functional, organism-based; conditions: Lister 427, 72 h
Cytochrome P450 2D6 = Cytochrome P450 2D6 (Homo sapiens, UniProt P10635); test: Inhibition of human microsomal CYP2D6 expressed in baculovirus infected BTI-TN-5B1-4 cells incubated for 30 mins by luciferase assay; format: ADME
[20] = test system: Trypanosoma brucei brucei; test: Antitrypanosomal activity against Trypanosoma brucei brucei Lister 427 bloodstream forms compound treated with cyclodextrins after 72 hrs by resazurin-based assay; format: functional, organism-based; conditions: Lister 427, 72 h
WI-38 = test: Cytotoxicity against human WI38 cells at 100 uM after 48 hrs by cell titer glo assay; format: cell-based; conditions: wi-38, 48 h
Trypanosoma brucei [21] = test: Inhibition of Trypanosoma brucei DHFR at 50 uM using folic aid as substrate by spectrophotometric analysis
[22] = target: Thymidylate synthase (Homo sapiens) (UniProt P04818); test: Inhibition of human thymidylate synthase at 50 uM using folic aid as substrate by spectrophotometric analysis
[23] = Inhibition of Trypanosoma brucei PTR1 using H2B as substrate incubated for 10 mins followed by addition of NADPH measured for 10 to 50 mins

Sequence of Cytochrome P450 2C9 (P11712 whole entry): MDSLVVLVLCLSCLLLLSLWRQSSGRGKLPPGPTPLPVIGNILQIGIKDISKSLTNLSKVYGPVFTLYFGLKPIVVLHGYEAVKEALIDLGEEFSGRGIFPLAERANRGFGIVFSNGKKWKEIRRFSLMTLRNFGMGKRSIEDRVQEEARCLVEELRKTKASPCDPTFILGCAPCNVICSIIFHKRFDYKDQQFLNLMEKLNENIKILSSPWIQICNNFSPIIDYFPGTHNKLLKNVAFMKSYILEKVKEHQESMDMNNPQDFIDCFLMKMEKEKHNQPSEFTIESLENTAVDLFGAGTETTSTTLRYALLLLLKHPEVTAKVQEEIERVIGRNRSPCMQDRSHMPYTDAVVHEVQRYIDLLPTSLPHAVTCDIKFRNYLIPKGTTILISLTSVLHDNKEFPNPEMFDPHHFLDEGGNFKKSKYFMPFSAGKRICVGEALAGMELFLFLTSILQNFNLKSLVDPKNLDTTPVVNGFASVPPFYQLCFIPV
Sequence of Cytochrome P450 3A4 (P08684 whole entry): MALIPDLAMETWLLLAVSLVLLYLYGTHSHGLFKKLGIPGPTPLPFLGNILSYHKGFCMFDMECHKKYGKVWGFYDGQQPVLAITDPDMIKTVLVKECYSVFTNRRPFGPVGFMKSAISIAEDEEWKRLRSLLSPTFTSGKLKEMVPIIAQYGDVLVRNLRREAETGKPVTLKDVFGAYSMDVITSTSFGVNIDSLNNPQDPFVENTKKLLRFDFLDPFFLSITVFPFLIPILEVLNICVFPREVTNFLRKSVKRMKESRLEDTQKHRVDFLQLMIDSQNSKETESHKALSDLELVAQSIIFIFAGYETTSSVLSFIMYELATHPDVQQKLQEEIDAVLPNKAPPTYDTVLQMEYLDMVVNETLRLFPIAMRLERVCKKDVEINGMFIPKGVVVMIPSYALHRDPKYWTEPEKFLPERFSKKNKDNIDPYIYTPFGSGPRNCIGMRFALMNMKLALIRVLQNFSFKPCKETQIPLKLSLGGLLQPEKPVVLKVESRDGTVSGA
Sequence of Cytochrome P450 2D6 (P10635 whole entry): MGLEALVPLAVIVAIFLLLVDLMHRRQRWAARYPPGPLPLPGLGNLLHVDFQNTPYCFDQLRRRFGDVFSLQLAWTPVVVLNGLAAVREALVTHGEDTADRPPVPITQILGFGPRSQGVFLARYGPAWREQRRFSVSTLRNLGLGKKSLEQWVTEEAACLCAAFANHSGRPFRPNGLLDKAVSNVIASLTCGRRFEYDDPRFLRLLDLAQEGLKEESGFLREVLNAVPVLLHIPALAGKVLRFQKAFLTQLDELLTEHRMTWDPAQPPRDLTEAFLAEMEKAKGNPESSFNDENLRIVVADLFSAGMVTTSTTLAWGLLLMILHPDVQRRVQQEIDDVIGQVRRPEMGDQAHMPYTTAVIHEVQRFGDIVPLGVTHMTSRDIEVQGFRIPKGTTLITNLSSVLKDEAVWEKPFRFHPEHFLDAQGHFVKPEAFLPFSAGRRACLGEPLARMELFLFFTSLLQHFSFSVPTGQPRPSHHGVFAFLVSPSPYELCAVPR
Sequence of Voltage-gated inwardly rectifying potassium channel KCNH2 (Q12809 whole entry): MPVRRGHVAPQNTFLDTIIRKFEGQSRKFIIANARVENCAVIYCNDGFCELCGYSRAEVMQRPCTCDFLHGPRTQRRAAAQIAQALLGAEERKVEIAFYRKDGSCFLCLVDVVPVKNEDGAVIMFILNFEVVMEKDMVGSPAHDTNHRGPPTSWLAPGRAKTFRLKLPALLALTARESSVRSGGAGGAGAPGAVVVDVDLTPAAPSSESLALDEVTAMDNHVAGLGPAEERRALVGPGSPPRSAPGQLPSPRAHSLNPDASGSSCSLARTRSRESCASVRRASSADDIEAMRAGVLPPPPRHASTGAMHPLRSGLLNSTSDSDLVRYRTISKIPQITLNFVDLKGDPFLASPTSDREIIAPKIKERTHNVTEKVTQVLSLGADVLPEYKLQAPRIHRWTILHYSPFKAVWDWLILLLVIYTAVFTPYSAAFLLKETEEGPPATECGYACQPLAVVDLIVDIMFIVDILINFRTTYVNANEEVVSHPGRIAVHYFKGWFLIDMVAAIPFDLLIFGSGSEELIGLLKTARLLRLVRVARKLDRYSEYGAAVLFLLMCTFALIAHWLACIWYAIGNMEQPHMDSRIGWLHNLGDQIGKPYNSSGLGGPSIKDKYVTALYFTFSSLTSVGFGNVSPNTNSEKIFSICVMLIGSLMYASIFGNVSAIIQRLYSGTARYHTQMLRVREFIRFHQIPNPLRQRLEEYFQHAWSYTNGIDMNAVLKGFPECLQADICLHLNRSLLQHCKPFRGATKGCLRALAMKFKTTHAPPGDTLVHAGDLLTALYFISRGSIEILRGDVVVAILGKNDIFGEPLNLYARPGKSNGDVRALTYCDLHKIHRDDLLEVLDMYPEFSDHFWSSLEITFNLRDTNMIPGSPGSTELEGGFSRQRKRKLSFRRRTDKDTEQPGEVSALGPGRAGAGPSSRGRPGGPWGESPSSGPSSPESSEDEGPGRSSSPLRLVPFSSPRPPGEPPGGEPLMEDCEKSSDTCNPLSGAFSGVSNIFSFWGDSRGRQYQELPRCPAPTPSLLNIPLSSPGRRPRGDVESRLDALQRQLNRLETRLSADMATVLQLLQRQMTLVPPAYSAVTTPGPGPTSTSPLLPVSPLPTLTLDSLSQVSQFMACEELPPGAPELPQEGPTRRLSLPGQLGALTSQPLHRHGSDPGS
Sequence of Cytochrome P450 2C19 (P33261 whole entry): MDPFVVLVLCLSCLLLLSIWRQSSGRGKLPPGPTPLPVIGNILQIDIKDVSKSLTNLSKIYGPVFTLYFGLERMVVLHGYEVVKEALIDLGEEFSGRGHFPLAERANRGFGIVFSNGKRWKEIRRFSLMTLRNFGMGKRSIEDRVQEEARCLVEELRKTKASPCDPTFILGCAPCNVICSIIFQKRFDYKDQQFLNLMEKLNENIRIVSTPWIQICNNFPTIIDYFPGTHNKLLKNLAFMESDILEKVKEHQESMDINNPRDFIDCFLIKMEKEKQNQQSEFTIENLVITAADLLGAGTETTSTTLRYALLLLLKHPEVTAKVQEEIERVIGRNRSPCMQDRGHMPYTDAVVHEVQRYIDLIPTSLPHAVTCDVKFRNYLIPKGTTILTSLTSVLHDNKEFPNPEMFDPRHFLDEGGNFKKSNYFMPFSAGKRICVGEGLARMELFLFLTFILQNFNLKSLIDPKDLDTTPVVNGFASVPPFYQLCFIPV
Sequence of Dihydrofolate reductase (P00374 whole entry): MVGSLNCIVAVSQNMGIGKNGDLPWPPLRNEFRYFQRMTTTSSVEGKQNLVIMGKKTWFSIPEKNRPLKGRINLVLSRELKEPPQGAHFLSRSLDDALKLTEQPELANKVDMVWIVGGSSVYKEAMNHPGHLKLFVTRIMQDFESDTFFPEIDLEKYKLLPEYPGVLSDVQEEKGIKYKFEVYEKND
Sequence of Thymidylate synthase (Homo sapiens) (P04818 2-313 limits assumed): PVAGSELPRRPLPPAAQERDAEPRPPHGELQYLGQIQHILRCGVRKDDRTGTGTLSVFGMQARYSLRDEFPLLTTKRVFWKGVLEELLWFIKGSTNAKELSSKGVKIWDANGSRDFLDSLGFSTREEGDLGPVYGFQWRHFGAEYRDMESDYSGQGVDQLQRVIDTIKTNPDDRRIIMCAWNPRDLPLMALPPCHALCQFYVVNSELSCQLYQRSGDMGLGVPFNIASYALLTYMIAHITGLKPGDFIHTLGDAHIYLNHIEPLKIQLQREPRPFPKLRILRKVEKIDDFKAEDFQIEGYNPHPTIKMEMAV

O=c1c(O)c(-c2cccc(O)c2)oc2ccc(O)cc12
Activity (786-0): Non-Toxic
inhibition (INH) (Cytochrome P450 1A2 [1]): Not Active
IC50 (Cytochrome P450 2C9): > 10 µM
inhibition (Leishmania mexicana [2]): 42 to 43%
Drug uptake [3]: Not Active
Activity [4]: Active
IC50 (Cytochrome P450 3A4): > 10 µM
IC50 (Cytochrome P450 1A2 [5]): 6.1 µM
EC50 [6]: 5.7 µM
IC50 (Cytochrome P450 2C19): > 10 µM
inhibition (Leishmania mexicana [7]): 86%
MNTC at 72 h [8]: > 100 µM
Activity (A549): Non-Toxic
CC50 at 72 h [9]: 53 µM
Drug uptake [10]: Not Active
Drug uptake [11]: Not Active
CI [12]: >1
solubility [13]: Soluble
selectivity ratio (in vitro): 7
MNTC at 72 h [14]: > 100 µM
half-life [15]: 7.6 min
IC50 (Dihydrofolate reductase): 50 µM
IC50 [16]: 99.3 µM
inhibition (Trypanosoma brucei [17]): 96%
Drug uptake [18]: Not Active
EC50 [19]: 7.56 µM
IC50 (Cytochrome P450 2D6): > 10 µM
EC50 [20]: 3.27 µM
Activity (WI-38): Non-Toxic
inhibition (Trypanosoma brucei [21]): 42 to 43%
inhibition [22]: inactive
IC50 [23]: 4.3 µM
